# Laboratory results as given in patent US20050272040A1, “Method for increasing synaptic growth or plasticity” (priority 2002, published 2005).
# Test system: hippocampal cells
# Test: Whole-cell patch-clamp recordings of synaptic charge
# Type: cell-based, rat
# Procedure: To examine the relationship between synaptic response and gene expression, an individual cell's electrophysiological response to BDNF was examined in conjunction with single-cell RT-PCR for Arc. […] Whole-cell patch-clamp recordings from 16 cells verified 0.8- to 4.5-fold increase in synaptic charge following 20 minutes BDNF exposure. […] A group of BDNF-treated cells presenting a minimal synaptic response was apparent. This group was categorized as non-responders (FIG. 1B) and the other cells showing a greater response to BDNF were classified as responders. To determine whether cellular basal activity influences the response to BDNF, the average synaptic charge pre-BDNF of the responders (36±13.1 pC, n=7) versus the non-responders (23.2±6.6 pC, n=9) was compared.
# To explore a functional role for VGF in neuromodulation, whole-cell patch-clamp recordings on hippocampal cells were performed in the presence of synthetic VGF peptides. The electrophysiological profile of VGF peptides on hippocampal cells was similar to that observed for BDNF (Levine et al. (1996) supra). […] Enhanced synaptic activity was maintained for up to 25 minutes in the continued presence of Thr-Leu-Gln-Pro-62 (SEQ ID NO:14). […] The effects of both Ala-Gln-Glu-Glu-30 (SEQ ID NO:16) and Thr-Leu-Gln-Pro-62 (SEQ ID NO:14) peptides were dose-dependent, saturating at 0.1 μM.
# Whole-cell patch clamp recordings were performed after 10-14 days in culture. Currents were recorded with an Axoclamp 200 amplifier, digitized at 2.5 kHz with an INDEC IDA 15125 interface, filtered at 5 kHz and stored. Recording parameters and stimulus protocols were controlled by custom software written with Borland C++ that utilizes device driver libraries supplied by INDEC. Data analysis programs were written with Microsoft Visual Basic. The. external bath solution for voltage clamp recordings was (in mM) 1.67 CaCl2, 1 MgCl2, 5.36 KCl, 137 NaCl, 17 glucose, 10 HEPES and 20 sucrose (neuron recording solution, NRS). The pipette solution contained (in mM) 105 Cs-methanesulfonate, 17.5 CsCl, 10 HEPES, 0.2 EGTA, 8 NaCl, 2 Mg-ATP, 2 Na-ATP, 0.3 Na-GTP, 20 phosphocreatinine, and 50 U/ml creatinine phosphokinase. All recordings were made at room temperature. The typical range of pipette resistance was 3-5 MΩ. Cell capacitance was 10-20 pF and access resistance was 7-20 MΩ. Vacuum perfusion system contained BDNF (50 ng/ml, Preprotech, Princeton, N.J.), NRS as a control or VGF peptides (0.1 μM=740 ng/ml). Three synthetic rat VGF peptides were used: Leu-Glu-Gly-Ser-28 (SEQ ID NO:15) amino acids 285-312 (amidated), Thr-Leu-Gln-Pro-62 (SEQ ID NO:14) amino acids 556-617 and Ala-Gln-Glu-Glu-30 (SEQ ID NO:16) amino acids 588-617. Each data point represents a cell from a separate dish and at least three different platings were used for each condition.
# Data were analyzed by integrating the synaptic currents for each sweep (synaptic charge). The charge measurements for all sweeps in a 1 min period were averaged (binned). Baseline is considered the average synaptic charge during the 2 min period (−2 to 0 min) in NRS immediately prior to BDNF or VGF application. Fold increases were then determined by dividing the synaptic charge during BDNF or VGF exposure by the baseline. Recordings were rejected if either the 0-5 min binned time period or 5-10 min binned time period after switching during BDNF or VGF exposure was 2×SEM below baseline, indicating “run down”.
substance,measurement,value
"Ala-Gln-Glu-Glu-30: synthetic rat VGF peptide, amino acids 588-617, C-terminal region (AQEE)",Saturating concentration of dose-dependent effect on synaptic charge,0.1 µM
